EC50 data for 22 compounds are collected here from patent EP2766361B1, “8-CARBAMOYL-2-(2,3-DISUBSTITUTED PYRID-6-YL)-1,2,3,4-TETRAHYDROISOQUINOLINE DERIVATIVES AS APOPTOSIS-INDUCING AGENTS FOR THE TREATMENT OF CANCER AND IMMUNE AND AUTOIMMUNE DISEASES” (priority 2011, dated 2013).

Where only a bound is given, the exact number is not on record here.

The experiment relates to mouse FL5.12 cells transfected with Bcl-xL. Description: FL5.12 cellular assay (cell viability, CellTiter-Glo). It counts as cell-based. The settings on record: IL-3-depleted, 3% FBS assay media, 24 hours, read-out: FL5.12 Bcl-xL, -IL3, EC50. On the procedure:
Cell viability was assayed using the CellTiter-Glo assay (Promega Corp., Madison, WI) according to the manufacturer instructions. Individual determinations were the result of duplicate values. […] Table 2. In Vitro Data
On the technique in general: In ATP-based viability assays light output follows the ATP content of the culture.
The term EC50 denotes the midpoint of the concentration-response curve. `Cc1nn(CC23CC4CC(CC(C4)C2)C3)c(C)c1-c1ccc(N2CCc3cccc(C(=O)Nc4nc5ccccc5s4)c3C2)nc1C(=O)O` [Example 2, 6-[8-(1,3-benzothiazol-2-ylcarbamoyl)-3,4-dihydroisoquinolin-2(1H)-yl]-3-[3,5-dimethyl-1-(tricyclo[3.3.1.1^3,7]dec-1-ylmethyl)-1H-pyrazol-4-yl]pyridine-2-carboxylic acid]: the EC50 was below 1 nM.

For `O=C(Nc1nc2ccccc2s1)c1cccc2c1CN(c1ccc(-c3cnn(CC4CCC5(CCC5)CC4)c3)c(C(=O)O)n1)CC2` [Example 4, 6-[8-(1,3-benzothiazol-2-ylcarbamoyl)-3,4-dihydroisoquinolin-2(1H)-yl]-3-[1-(spiro[3.5]non-7-ylmethyl)-1H-pyrazol-4-yl]pyridine-2-carboxylic acid], the EC50 came to 918 nM.

With `CC12CC3CC(C)(C1)CC(Cn1cc(-c4ccc(N5CCc6cccc(C(=O)Nc7nc8ccccc8s7)c6C5)nc4C(=O)O)cn1)(C3)C2` [Example 5, 6-[8-(1,3-benzothiazol-2-ylcarbamoyl)-3,4-dihydroisoquinolin-2(1H)-yl]-3-(1-{[3,5-dimethyltricyclo[3.3.1.1^3,7]dec-1-yl]methyl}-1H-pyrazol-4-yl)pyridine-2-carboxylic acid], the EC50 came to 2 nM.

Regarding `O=C(Nc1nc2ccccc2s1)c1cccc2c1CN(c1ccc(-c3cnn(CC45CC6CC(CC(O)(C6)C4)C5)c3)c(C(=O)O)n1)CC2` [Example 6, 6-[8-(1,3-benzothiazol-2-ylcarbamoyl)-3,4-dihydroisoquinolin-2(1H)-yl]-3-(1-{[3-hydroxytricyclo[3.3.1.1^3,7]dec-1-yl]methyl}-1H-pyrazol-4-yl)pyridine-2-carboxylic acid], the concentration for a half-maximal effect (EC50) came out at 146 nM.

`COC12CC3CC(CC(Cn4cc(-c5ccc(N6CCc7cccc(C(=O)Nc8nc9ccccc9s8)c7C6)nc5C(=O)O)cn4)(C3)C1)C2` [Example 7, 6-[8-(1,3-benzothiazol-2-ylcarbamoyl)-3,4-dihydroisoquinolin-2(1H)-yl]-3-(1-{[3-methoxytricyclo[3.3.1.1^3,7]dec-1-yl]methyl}-1H-pyrazol-4-yl)pyridine-2-carboxylic acid]: the EC50 stood at 37 nM.

Regarding `COCCOC12CC3CC(CC(Cn4cc(-c5ccc(N6CCc7cccc(C(=O)Nc8nc9ccccc9s8)c7C6)nc5C(=O)O)cn4)(C3)C1)C2` [Example 8, 6-[8-(1,3-benzothiazol-2-ylcarbamoyl)-3,4-dihydroisoquinolin-2(1H)-yl]-3-(1-{[3-(2-methoxyethoxy)tricyclo[3.3.1.1^3,7]dec-1-yl]methyl}-1H-pyrazol-4-yl)pyridine-2-carboxylic acid], the half-maximal effective concentration (EC50) worked out at 147 nM.

Turning to `CC12CC3(C)CC(C)(C1)CC(Cn1cc(-c4ccc(N5CCc6cccc(C(=O)Nc7nc8ccccc8s7)c6C5)nc4C(=O)O)cn1)(C2)C3` [Example 9, 6-[8-(1,3-benzothiazol-2-ylcarbamoyl)-3,4-dihydroisoquinolin-2(1H)-yl]-3-{1-[(3,5,7-trimethyltricyclo[3.3.1.1^3,7]dec-1-yl)methyl]-1H-pyrazol-4-yl}pyridine-2-carboxylic acid], the EC50 came to 3 nM.

Turning to `O=C(Nc1nc2ccccc2s1)c1cccc2c1CN(c1ccc(-c3cnn(CC45CC6CC(CC(Br)(C6)C4)C5)c3)c(C(=O)O)n1)CC2` [Example 11, 6-[8-(1,3-benzothiazol-2-ylcarbamoyl)-3,4-dihydroisoquinolin-2(1H)-yl]-3-(1-{[3-bromotricyclo[3.3.1.1^3,7]dec-1-yl]methyl}-1H-pyrazol-4-yl)pyridine-2-carboxylic acid], the EC50 stood at 11 nM.

Turning to `CC(C)OC12CC3CC(CC(Cn4cc(-c5ccc(N6CCc7cccc(C(=O)Nc8nc9ccccc9s8)c7C6)nc5C(=O)O)cn4)(C3)C1)C2` [Example 12, 6-[8-(1,3-benzothiazol-2-ylcarbamoyl)-3,4-dihydroisoquinolin-2(1H)-yl]-3-(1-{[3-(propan-2-yloxy)tricyclo[3.3.1.1^3,7]dec-1-yl]methyl}-1H-pyrazol-4-yl)pyridine-2-carboxylic acid], the 50% effective concentration (EC50) is 24 nM.

As for `Cc1c(-c2ccc(N3Cc4c(C(=O)Nc5nc6ccccc6s5)cccc4C(C)(C)C3)nc2C(=O)O)cnn1CC12CC3CC(CC(C3)C1)C2` [Example 14, 6-[8-(1,3-benzothiazol-2-ylcarbamoyl)-4,4-dimethyl-3,4-dihydroisoquinolin-2(1H)-yl]-3-[5-methyl-1-(tricyclo[3.3.1.1^3,^7]dec-1-ylmethyl)-1H-pyrazol-4-yl]pyridine-2-carboxylic acid], the EC50 is below 1 nM.

With `O=C(Nc1nc2ccccc2s1)c1cccc2c1CN(c1ccc(-c3cnn(CC45CC6CC(C4)CC(N4CCOCC4)(C6)C5)c3)c(C(=O)O)n1)CC2` [Example 15, 6-[8-(1,3-benzothiazol-2-ylcarbamoyl)-3,4-dihydroisoquinolin-2(1H)-yl]-3-(1-{[3-(morpholin-4-yl)tricyclo[3.3.1.1^3,7]dec-1-yl]methyl}-1H-pyrazol-4-yl)pyridine-2-carboxylic acid], the concentration giving a half-maximal response (EC50) amounted to 110 nM.

As for `Cc1c(-c2ccc(N3CCc4cccc(C(=O)Nc5nc6ccccc6s5)c4C3)nc2C(=O)NS(C)(=O)=O)cnn1CC12CC3CC(CC(C3)C1)C2` [Example 17, N-(1,3-benzothiazol-2-yl)-2-{6-[(methylsulfonyl)carbamoyl]-5-[5-methyl-1-(tricyclo[3.3.1.1^3,7]dec-1-ylmethyl)-1H-pyrazol-4-yl]pyridin-2-yl}-1,2,3,4-tetrahydroisoquinoline-8-carboxamide], the half-maximal effective concentration (EC50) stood at 1 nM.

In the case of `Cc1c(-c2ccc(N3CCc4cccc(C(=O)Nc5nc6ccccc6s5)c4C3)nc2-c2nn[nH]n2)cnn1CC12CC3CC(CC(C3)C1)C2` [Example 19, N-(1,3-benzothiazol-2-yl)-2-{5-[5-methyl-1-(tricyclo[3.3.1.1^3,7]dec-1-ylmethyl)-1H-pyrazol-4-yl]-6-(2H-tetrazol-5-yl)pyridin-2-yl}-1,2,3,4-tetrahydroisoquinoline-8-carboxamide], the half-maximal effective concentration (EC50) amounted to 3 nM.

With `Cc1cc(OCC23CC4CC(CC(C4)C2)C3)ccc1-c1ccc(N2CCc3cccc(C(=O)Nc4nc5ccccc5s4)c3C2)nc1C(=O)O` [Example 20, 6-[8-(1,3-benzothiazol-2-ylcarbamoyl)-3,4-dihydroisoquinolin-2(1H)-yl]-3-{2-methyl-4-[tricyclo[3.3.1.1^3,7]dec-1-ylmethoxy]phenyl}pyridine-2-carboxylic acid], the EC50 was above 1000 nM.

`Cc1c(OCC23CC4CC(CC(C4)C2)C3)cccc1-c1ccc(N2CCc3cccc(C(=O)Nc4nc5ccccc5s4)c3C2)nc1C(=O)O` [Example 21, 6-[8-(1,3-benzothiazol-2-ylcarbamoyl)-3,4-dihydroisoquinolin-2(1H)-yl]-3-{2-methyl-3-[tricyclo[3.3.1.1^3,7]dec-1-ylmethoxy]phenyl}pyridine-2-carboxylic acid]: the EC50 came to 343 nM.

Consider `O=C(Nc1nc2ccccc2s1)c1cccc2c1CN(c1ccc(-c3cccc(OCC45CC6CC(CC(C6)C4)C5)c3)c(C(=O)O)n1)CC2` [Example 22, 6-[8-(1,3-benzothiazol-2-ylcarbamoyl)-3,4-dihydroisoquinolin-2(1H)-yl]-3-{3-[tricyclo[3.3.1.1^3,7]dec-1-ylmethoxy]phenyl}pyridine-2-carboxylic acid], for which the EC50 is above 1000 nM.

On to `O=C(Nc1nc2ccccc2s1)c1cccc2c1CN(c1ccc(-c3ccnc(OCC45CC6CC(CC(C6)C4)C5)c3)c(C(=O)O)n1)CC2` [Example 25, 6-[8-(1,3-benzothiazol-2-ylcarbamoyl)-3,4-dihydroisoquinolin-2(1H)-yl]-2'-(tricyclo[3.3.1.1^3,7]dec-1-ylmethoxy)-3,4'-bipyridine-2-carboxylic acid], for which the EC50 is above 1000 nM.

For `O=C(Nc1nc2ccccc2s1)c1cccc2c1CN(c1ccc(-c3cnn(CC45CC6CC(C4)CC(OCCN4CCOCC4)(C6)C5)c3)c(C(=O)O)n1)CC2` [Example 26, 6-[8-(1,3-benzothiazol-2-ylcarbamoyl)-3,4-dihydroisoquinolin-2(1H)-yl]-3-[1-({3-[2-(morpholin-4-yl)ethoxy]tricyclo[3.3.1.1^3,7]dec-1-yl}methyl)-1H-pyrazol-4-yl]pyridine-2-carboxylic acid], the EC50 stood at 243 nM.

In the case of `Cc1c(-c2ccc(N3CCc4cccc(C(=O)Nc5nc6ccccc6s5)c4C3)nc2C(=O)O)ccnc1OCC12CC3CC(CC(C3)C1)C2` [Example 27, 6-[8-(1,3-benzothiazol-2-ylcarbamoyl)-3,4-dihydroisoquinolin-2(1H)-yl]-3'-methyl-2'-(tricyclo[3.3.1.1^3,7]dec-1-ylmethoxy)-3,4'-bipyridine-2-carboxylic acid], the concentration giving a half-maximal response (EC50) worked out at 214 nM.

As to `N#Cc1c(-c2ccc(N3CCc4cccc(C(=O)Nc5nc6ccccc6s5)c4C3)nc2C(=O)O)cnn1CC12CC3CC(CC(C3)C1)C2` [Example 29, 6-[8-(1,3-benzothiazol-2-ylcarbamoyl)-3,4-dihydroisoquinolin-2(1H)-yl]-3-{5-cyano-1-[tricyclo[3.3.1.1^3,7]dec-1-ylmethyl]-1H-pyrazol-4-yl}pyridine-2-carboxylic acid], the EC50 is 3 nM.

As for `Cc1c(-c2ccc(N3CCc4cccc(C(=O)Nc5nc6ncccc6s5)c4C3)nc2C(=O)O)cnn1CC12CC3CC(CC(C3)C1)C2` [Example 30, 3-[5-methyl-1-(tricyclo[3.3.1.1^3,7]dec-1-ylmethyl)-1H-pyrazol-4-yl]-6-[8-([1,3]thiazolo[4,5-b]pyridin-2-ylcarbamoyl)-3,4-dihydroisoquinolin-2(1H)-yl]pyridine-2-carboxylic acid], the EC50 came out at 49 nM.

For `Cc1c(-c2ccc(N3CCc4cccc(C(=O)Nc5nc6cnccc6s5)c4C3)nc2C(=O)O)cnn1CC12CC3CC(CC(C3)C1)C2` [Example 31, 3-[5-methyl-1-(tricyclo[3.3.1.1^3,7]dec-1-ylmethyl)-1H-pyrazol-4-yl]-6-[8-([1,3]thiazolo[4,5-c]pyridin-2-ylcarbamoyl)-3,4-dihydroisoquinolin-2(1H)-yl]pyridine-2-carboxylic acid], the 50% effective concentration (EC50) was 5 nM.
